Patent publication US20190100534A1, “Cephem Compounds with Latent Reactive Groups” (Gladius Pharmaceuticals, Inc., priority 2017, published 2019)

Legend:
Format in all cases: cell-based
[1] = system: Pseudomonas aeruginosa PA (URMC-3); assay: MIC determination; conditions: PA (URMC-3); CAMH broth, 20 μM Apo-Transferrin, 37° C., 18 hours
Procedure, shortened: (§1)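 Growth inhibition was judged by well clarity after 18 h at 37 °C in transferrin-supplemented (20 μM apo form) CAMH. Standardized suspensions (0.08-0.1 OD600) were added within 30 min of preparation.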

[2] = system: Pseudomonas aeruginosa PA-RR-(98023895); assay: MIC determination; conditions: PA-RR-(98023895); CAMH broth, 20 μM Apo-Transferrin, 37° C., 18 hours
Procedure, shortened: as §1

[3] = system: Pseudomonas aeruginosa PA-RR-(G7294437); assay: MIC determination; conditions: PA-RR-(G7294437); CAMH broth, 20 μM Apo-Transferrin, 37° C., 18 hours
Procedure, shortened: as §1

[4] = system: Pseudomonas aeruginosa PA-RR-(G7304100); assay: MIC determination; conditions: PA-RR-(G7304100); CAMH broth, 20 μM Apo-Transferrin, 37° C., 18 hours
Procedure, shortened: as §1

[5] = system: Pseudomonas aeruginosa PA-RR-(G8062859); assay: MIC determination; conditions: PA-RR-(G8062859); CAMH broth, 20 μM Apo-Transferrin, 37° C., 18 hours
Procedure, shortened: as §1

E. coli J53 Alone = assay: MIC determination, isogenic E. coli strains; conditions: J53 Alone, CAMH broth, 20 μM Apo-Transferrin, 37° C., 18 hours
Procedure, shortened: (§2)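 MIC read as the lowest compound level giving a transparent well after 18 h at 37° C. Strains: parent E. coli J53 and isogenic transformants expressing plasmid-borne (pBC-SK(+)) beta-lactamases such as DHA-1; inoculum 0.5 McFarland; CAMH broth plus 20 μM apo-transferrin; compound 64 μg/mL downward, 2-fold dilutions.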

[6] = system: Isogenic E. coli J58 strain carrying DHA-1; assay: MIC determination, isogenic E. coli strains; conditions: isogenic E. coli strain, DHA-1; CAMH broth, 20 μM Apo-Transferrin, 37° C., 18 hours
Procedure, shortened: as §2

[7] = system: Isogenic E. coli J58 strain carrying TEM-26; assay: MIC determination, isogenic E. coli strains; conditions: isogenic E. coli strain, TEM-26; CAMH broth, 20 μM Apo-Transferrin, 37° C., 18 hours
Procedure, shortened: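 E. coli J53 carried a pBC-SK(+) plasmid expressing TEM-26 β-lactamase. Compounds were serially halved from […] in CAMH broth containing 20 μM apo-transferrin, inoculated from a 0.5 McFarland culture and held overnight (18 h, 37° C); MIC read as the lowest concentration without visible growth.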

[8] = system: Isogenic E. coli J58 strain carrying SHV-1; assay: MIC determination, isogenic E. coli strains; conditions: isogenic E. coli strain, SHV-1; CAMH broth, 20 μM Apo-Transferrin, 37° C., 18 hours
Procedure, shortened: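 MIC is the lowest compound concentration leaving a transparent well after overnight (18 h) incubation at 37 °C. The test strain was E. coli J53 expressing plasmid-borne SHV-1 beta-lactamase from pBC-SK(+), adjusted to 0.5 McFarland. Compounds were twofold serially diluted, starting at 64 μg/mL, in CAMH broth supplemented with 20 μM apo-transferrin.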

[9] = system: Isogenic E. coli J58 strain carrying CTX-M-14; assay: MIC determination, isogenic E. coli strains; conditions: isogenic E. coli strain, CTX-M-14; CAMH broth, 20 μM Apo-Transferrin, 37° C., 18 hours
Procedure, shortened: (§3)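 Isogenic E. coli J53 carrying plasmid-encoded CTX-M-14 or CTX-M-15 (ampicillin-selected), standardized to 0.08-0.1 OD600, incubated overnight (18 h, 37° C.) in CAMH broth plus 20 μM apo-transferrin over 2-fold compound dilutions starting at 64 μg/mL. Lowest concentration with no visible growth recorded as MIC.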

[10] = system: Isogenic E. coli J58 strain carrying CTX-M-15; assay: MIC determination, isogenic E. coli strains; conditions: isogenic E. coli strain, CTX-M-15; CAMH broth, 20 μM Apo-Transferrin, 37° C., 18 hours
Procedure, shortened: as §3

[11] = system: Isogenic E. coli J58 strain carrying KPC-2; assay: MIC determination, isogenic E. coli strains; conditions: isogenic E. coli strain, KPC-2; CAMH broth, 20 μM Apo-Transferrin, 37° C., 18 hours
Procedure, shortened: (§4)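 Strain: E. coli J53 electroporated with a pBC-SK(+) plasmid encoding the KPC enzyme, selected on ampicillin. Twofold dilutions ([…]) were made in CAMH broth containing 20 μM apo-transferrin and inoculated at 0.5 McFarland. After overnight (18 h) growth at 37 °C, MIC was read as the lowest concentration with no visible growth.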

[12] = system: Isogenic E. coli J58 strain carrying KPC-3; assay: MIC determination, isogenic E. coli strains; conditions: isogenic E. coli strain, KPC-3; CAMH broth, 20 μM Apo-Transferrin, 37° C., 18 hours
Procedure, shortened: as §4

[13] = system: Isogenic E. coli J58 strain carrying NDM-1; assay: MIC determination, isogenic E. coli strains
Procedure, shortened: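 Broth microdilution was run in cation-adjusted Mueller-Hinton broth supplemented with 20 μM apo-transferrin, using a 64 μg/mL top concentration diluted twofold. The inoculum was NDM-1-expressing E. coli J53 (pBC-SK(+) plasmid) at 0.5 McFarland. After overnight incubation (18 h, 37° C), the lowest compound concentration preventing visible growth was recorded as the MIC.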

[14] = system: Isogenic E. coli J58 strain carrying VIM-2; assay: MIC determination, isogenic E. coli strains
Procedure, shortened: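 Broth microdilution in cation-adjusted Mueller-Hinton with 20 μM apo-transferrin, compound serially halved from 64 μg/mL, read by eye after 18 h at 37 °C as lowest clear well. Inoculum: VIM-2-expressing E. coli J53 (pBC-SK(+) plasmid), adjusted to 0.5 McFarland.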

[15] = system: Isogenic E. coli J58 strain carrying IMP-1; assay: MIC determination, isogenic E. coli strains
Procedure, shortened: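 Broth microdilution in cation-adjusted Mueller-Hinton broth with 20 μM apo-transferrin, compound serially diluted two-fold from 64 μg/mL, against E. coli J53 carrying plasmid-borne IMP-1. Inoculum adjusted to 0.5 McFarland; plates incubated 18 h at 37° C. MIC taken as lowest concentration giving a clear well.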

Compound: CC(C)(O/N=C(\C(=O)N[C@@H]1C(=O)N2C(C(=O)O)=C(C=Cc3ccc(C[n+]4ccc5cc(O)c(O)cc5c4)cc3)CS[C@H]12)c1csc(N)n1)C(=O)O (mixture of isomers) [Compound 435, 2-(4-((E/Z)-2-((6R,7R)-7-((Z)-2-(2-aminothiazol-4-yl)-2-(((2-carboxypropan-2-yl)oxy)imino)acetamido)-2-carboxy-8-oxo-5-thia-1-azabicyclo[4.2.0]oct-2-en-3-yl)vinyl)benzyl)-6,7-dihydroxyisoquinolin-2-ium]
- Minimum Inhibitory Concentrations, PA (URMC-3) [1]: ≤0.06 microgram/mL
- Minimum Inhibitory Concentrations, PA-RR-(98023895) [2]: 1 microgram/mL
- Minimum Inhibitory Concentrations, PA-RR-(G7294437) [3]: ≤0.06 microgram/mL
- Minimum Inhibitory Concentrations, PA-RR-(G7304100) [4]: ≤0.06 microgram/mL
- Minimum Inhibitory Concentrations, PA-RR-(G8062859) [5]: 0.5 microgram/mL
- Mimimum Inhibitory Concentrations, J53 Alone (E. coli J53 Alone; Table 4-1): ≤0.06 microgram/mL
- Mimimum Inhibitory Concentrations, J53 Alone (E. coli J53 Alone; Table 4-2): ≤0.06 microgram/mL
- Mimimum Inhibitory Concentrations, DHA-1 [6]: ≤0.06 microgram/mL
- Mimimum Inhibitory Concentrations, TEM-26 [7]: ≤0.06 microgram/mL
- Mimimum Inhibitory Concentrations, SHV-1 [8]: 0.13 microgram/mL
- Mimimum Inhibitory Concentrations, CTX-M-14 [9]: ≤0.06 microgram/mL
- Mimimum Inhibitory Concentrations, CTX-M-15 [10]: ≤0.06 microgram/mL
- Mimimum Inhibitory Concentrations, KPC-2 [11]: 0.25 microgram/mL
- Mimimum Inhibitory Concentrations, KPC-3 [12]: 0.13 microgram/mL
- Mimimum Inhibitory Concentrations, NDM-1 ([13]; isogenic E. coli strain, NDM-1, CAMH broth, 20 μM Apo-Transferrin, 37° C., 18 hours): 2 microgram/mL
- MICs for an E. coli strain carrying the gene for NDM-1, in words ([13]; review of Tables 4-1 and 4-2): lower MICS compared to other compounds tested
- Mimimum Inhibitory Concentrations, VIM-2 ([14]; isogenic E. coli strain, VIM-2, CAMH broth, 20 μM Apo-Transferrin, 37° C., 18 hours): ≤0.06 microgram/mL
- MICs for an E. coli strain carrying the gene for carbapenemase VIM-1, in words ([14]; review of Tables 4-1 and 4-2): low microgram/mL MICs
- Mimimum Inhibitory Concentrations, IMP-1 ([15]; isogenic E. coli strain, IMP-1, CAMH broth, 20 μM Apo-Transferrin, 37° C., 18 hours): 0.13 microgram/mL
- MICs for an E. coli strain carrying the gene for carbapenemase IMP-1, in words ([15]; review of Tables 4-1 and 4-2): low microgram/mL MICs
